PMC5517430, “2,3,7,8-Tetrachlorodibenzo-p-dioxin (TCDD)-elicited effects on bile acid homeostasis: Alterations in biosynthesis, enterohepatic circulation, and microbial metabolism” (Scientific Reports, 2017)

Experiments:
Abcc4 = assay: Hepatic RNA-Seq differential gene expression (fold change, P1(t), ED50, BMD, BMDL); type: in vivo, mouse; details: C57BL/6, mouse, liver, oral; male mice, 30 µg/kg TCDD every 4 d for 28 d
Protocol: Frozen ileal epithelium scrapings and liver samples were homogenized in TRIzol (Ambion, Waltham, MA) using a Mixer Mill 300 tissue homogenizer (Retsch, Germany) and total RNA was isolated as previously described. RNA was quantified using a Nano-drop spectrophotometer (Thermo Scientific, Wilmington, DE) at 260 nm, and purity was assessed using the A260/A280 ratio and the Caliper LabChip GX (Perkin Elmer, Waltham, MA).
Dose-dependent gene expression was examined using RNA-Seq performed at the MSU Research Technology Support Facility (RTSF) Genomics Core (rtsf.natsci.msu.edu/genomics). Ileal libraries from three independent biological replicates (n = 3) were prepared using the Ovation Mouse RNA-Seq System 1–16 sample preparation kit (NuGen, San Carlos, CA), with an additional DNase step. Libraries were quantified and sequenced as previously described, using a read depth of ~30 M per sample[33], [67]. Quality was determined using FASTQC v0.11.3 and adaptor sequences were removed using Trimmomatic v0.33. Reads were mapped to the mouse reference genome (GRCm38 release 81) using Bowtie2 v2.2.6 and TopHat2 v2.1.0. Alignments were converted to SAM format using SAMTools v1.2.0. For TCDD-mediated differential gene expression, fold changes were calculated relative to vehicle controls. Hepatic RNA-Seq analysis was previously published. Genes were considered differentially expressed if |fold change| ≥ 1.5 and statistical P1(t) value ≥ 0.8 at one or more doses. RNA-Seq datasets for the ileal epithelium and liver were deposited in the Gene Expression Omnibus (GEO; accession number GSE89430 and GSE87519, respectively). The RNA-Seq results (fold changes, P1(t) values) for each gene discussed in the manuscript have been compiled in Supplementary Table S1. […] Estimation of benchmark dose (BMD) and BMD lower confidence limit (BMDL) was performed using BMDExpress[69] as previously described, and has been included in Supplementary Table S1.

bile acid mixture = assay: Hydrophobicity index (HIx) of bile acid mixtures in liver, serum and feces; type: in vivo, mouse; details: male mice
Excerpt: In general, bile acid toxicity increases with hydrophobicity, [39], which depends on ionization, hydroxylation, and conjugation (taurine, glycine, sulfate, glucoronate)[40]. The potential toxicity of a bile acid mixture can be estimated by calculating the hydrophilic-hydrophobic balance using the hydrophobicity index (HIx) of each bile acid species in the mixture, as described by Heuman[41]. […] Consequently, the shift towards increased hydrophobicity is primarily driven by a decrease in the relative abundance of T-α-MCA, a highly hydrophilic species.

male C57BL/6 mice = assay: Whole gut transit time with carmine red dye; type: in vivo, mouse
Protocol: At 27d after the initial dose (PND55), whole gut transit time (WGTT) was determined using carmine red dye, which cannot be intestinally absorbed. At time 0 (t0), mice were orally gavaged with 150 µL of carmine red solution (6% carmine red dye suspended in 0.5% methylcellulose). Fecal pellets were monitored continuously for the presence of carmine red. WGTT represents the time interval between t0 and the first observance of carmine red dye in the fecal pellets.

[1] = set-up: method as in PMID 6138222; details: mice; cited from earlier work

Clc1cc2c(cc1Cl)Oc1cc(Cl)c(Cl)cc1O2 [TCDD, 2,3,7,8-tetrachlorodibenzo-p-dioxin]
fold induction at 28 d (Abcc4): 58.1
Shift of fecal bile acid mixture HIx (bile acid mixture; feces, TCDD): moderate increase in hydrophobicity
Shift of hepatic bile acid mixture HIx (bile acid mixture; liver, 3–30 µg/kg TCDD every 4 d for 28 d): toward greater hydrophobicity
Shift of serum bile acid mixture HIx (bile acid mixture; serum, TCDD every 4 d for 28 d): more hydrophilic
Whole gut transit time (male C57BL/6 mice; 30 µg/kg TCDD every 4 d, 27 d after initial dose, controls 2.5 h): 4.1 h
Reduction in gut motility (male C57BL/6 mice; 30 µg/kg TCDD vs controls): 1.6 fold
Half-life [1]: 190 to 288 h
